Patent US12433293B2, “Herbicidal compositions” (BAYER AKTIENGESELLSCHAFT, priority 2019, dated 2025)

System: harmful plant species
Assay: Specific trial examples: synergistic effect (Δ) of herbicidal binary compositions applied by the post-emergence method, observed vs Colby expected value (Tables 3.1-3.4)
Assay type: in vivo
[1] = 1 g a.i./ha, post-emergence (Z25)
[2] = 1 g a.i./ha, post-emergence (Z26)
[3] = 4 g a.i./ha, post-emergence (Table 3.2, Z25)
[4] = 5 g a.i./ha, post-emergence (Table 3.2, Z25)
[5] = 16 g a.i./ha, post-emergence (Table 3.2, Z25)

O=C(Nc1ccc(F)cc1F)c1cccnc1Oc1cccc(C(F)(F)F)c1 [(B2.18) Diflufenican]
30%: Herbicidal action 21 DAT [%] against Ipomoea purpurea (30 g a.i./ha, post-emergence) | Herbicidal action 14 DAT [%] against Matricaria inodora (270 g a.i./ha, post-emergence) | Herbicidal action 14 DAT [%] against Phalaris minor (270 g a.i./ha, post-emergence) | Herbicidal action 14 DAT [%] against Veronica hederifolia (270 g a.i./ha, post-emergence) | Herbicidal action 21 DAT [%] against Abutilon theophrasti (270 g a.i./ha, post-emergence) | Herbicidal action 28 DAT [%] against Lolium rigidum (270 g a.i./ha, post-emergence) | Herbicidal action 28 DAT [%] against Phalaris minor (270 g a.i./ha, post-emergence) | Herbicidal action 28 DAT [%] against Poa annua L. (270 g a.i./ha, post-emergence) | Herbicidal action 28 DAT [%] against Veronica hederifolia (270 g a.i./ha, post-emergence)
10%: Herbicidal action 21 DAT [%] against Kochia Scoparia (30 g a.i./ha, post-emergence) | Herbicidal action 21 DAT [%] against Setaria viridis (30 g a.i./ha, post-emergence) | Herbicidal action 28 DAT [%] against Phalaris minor (30 g a.i./ha, post-emergence) | Herbicidal action 28 DAT [%] against Poa annua L. (30 g a.i./ha, post-emergence) | Herbicidal action 28 DAT [%] against Phalaris minor (90 g a.i./ha, post-emergence)
25%: Herbicidal action 21 DAT [%] against Kochia Scoparia (270 g a.i./ha, post-emergence)
60%: Herbicidal action 21 DAT [%] against Ipomoea purpurea (270 g a.i./ha, post-emergence)
20%: Herbicidal action 14 DAT [%] against Alopecurus myosuroides (30 g a.i./ha, post-emergence) | Herbicidal action 14 DAT [%] against Phalaris minor (30 g a.i./ha, post-emergence) | Herbicidal action 21 DAT [%] against Abutilon theophrasti (30 g a.i./ha, post-emergence) | Herbicidal action 28 DAT [%] against Veronica hederifolia (30 g a.i./ha, post-emergence) | Herbicidal action 14 DAT [%] against Alopecurus myosuroides (90 g a.i./ha, post-emergence) | Herbicidal action 14 DAT [%] against Lolium rigidum (90 g a.i./ha, post-emergence) | Herbicidal action 14 DAT [%] against Poa annua L. (90 g a.i./ha, post-emergence) | Herbicidal action 21 DAT [%] against Abutilon theophrasti (90 g a.i./ha, post-emergence) | Herbicidal action 21 DAT [%] against Kochia Scoparia (90 g a.i./ha, post-emergence) | Herbicidal action 21 DAT [%] against Setaria viridis (90 g a.i./ha, post-emergence) | Herbicidal action 28 DAT [%] against Poa annua L. (90 g a.i./ha, post-emergence) | Herbicidal action 28 DAT [%] against Veronica hederifolia (90 g a.i./ha, post-emergence) | Herbicidal action 14 DAT [%] against Lolium rigidum (270 g a.i./ha, post-emergence) | Herbicidal action 28 DAT [%] against Alopecurus myosuroides (270 g a.i./ha, post-emergence) | Herbicidal action 28 DAT [%] against Matricaria inodora (270 g a.i./ha, post-emergence)

CP(=O)(O)CCC(N)C(=O)O (stereo not drawn) [(B7.4) Glufosinate]
30%: Herbicidal action 28 DAT [%] against Centaurea cyanus (180 g a.i./ha, post-emergence) | Herbicidal action 28 DAT [%] against Phalaris minor (180 g a.i./ha, post-emergence) | Herbicidal action 28 DAT [%] against Lolium rigidum (resistant biotype) (540 g a.i./ha, post-emergence)
90%: Herbicidal action 21 DAT [%] against Amaranthus palmeri (150 g a.i./ha, post-emergence)
35%: Herbicidal action 21 DAT [%] against Amaranthus palmeri (50 g a.i./ha, post-emergence (Z25))
10%: Herbicidal action 21 DAT [%] against Kochia Scoparia (50 g a.i./ha, post-emergence) | Herbicidal action 28 DAT [%] against Phalaris minor (60 g a.i./ha, post-emergence)
20%: Herbicidal action 14 DAT [%] against Phalaris minor (60 g a.i./ha, post-emergence) | Herbicidal action 28 DAT [%] against Poa annua L. (180 g a.i./ha, post-emergence)
40%: Herbicidal action 14 DAT [%] against Lolium rigidum (180 g a.i./ha, post-emergence) | Herbicidal action 28 DAT [%] against Lolium rigidum (540 g a.i./ha, post-emergence) | Herbicidal action 28 DAT [%] against Phalaris minor (540 g a.i./ha, post-emergence)
50%: Herbicidal action 21 DAT [%] against Abutilon theophrasti (50 g a.i./ha, post-emergence) | Herbicidal action 14 DAT [%] against Veronica hederifolia (60 g a.i./ha, post-emergence) | Herbicidal action 21 DAT [%] against Kochia Scoparia (150 g a.i./ha, post-emergence) | Herbicidal action 14 DAT [%] against Lolium rigidum (resistant biotype) (540 g a.i./ha, post-emergence)
60%: Herbicidal action 14 DAT [%] against Centaurea cyanus (180 g a.i./ha, post-emergence) | Herbicidal action 28 DAT [%] against Matricaria inodora (180 g a.i./ha, post-emergence) | Herbicidal action 14 DAT [%] against Phalaris minor (540 g a.i./ha, post-emergence)
70%: Herbicidal action 28 DAT [%] against Centaurea cyanus (540 g a.i./ha, post-emergence)
85%: Herbicidal action 14 DAT [%] against Centaurea cyanus (540 g a.i./ha, post-emergence)

O=C(O)CNCP(=O)(O)O [(B7.5) Glyphosate]
70%: Herbicidal action 28 DAT [%] against Matricaria inodora (150 g a.i./ha, post-emergence) | Herbicidal action 28 DAT [%] against Lolium rigidum (resistant biotype) (450 g a.i./ha, post-emergence)
50%: Herbicidal action 14 DAT [%] against Centaurea cyanus (150 g a.i./ha, post-emergence) | Herbicidal action 42 DAT [%] against Geranium dissectum (720 g a.i./ha, post-emergence)
85%: Herbicidal action 28 DAT [%] against Poa annua L. (450 g a.i./ha, post-emergence)
60%: Herbicidal action 21 DAT [%] against Amaranthus palmeri (50 g a.i./ha, post-emergence (Z26)) | Herbicidal action 14 DAT [%] against Centaurea cyanus (450 g a.i./ha, post-emergence) | Herbicidal action 28 DAT [%] against Centaurea cyanus (450 g a.i./ha, post-emergence)
0%: Herbicidal action 42 DAT [%] against Malva pusilla (720 g a.i./ha, post-emergence) | Herbicidal action 45 DAT [%] against Ipomoea ssp (720 g a.i./ha, post-emergence)
30%: Herbicidal action 28 DAT [%] against Phalaris minor (50 g a.i./ha, post-emergence) | Herbicidal action 28 DAT [%] against Lolium rigidum (150 g a.i./ha, post-emergence)
40%: Herbicidal action 28 DAT [%] against Centaurea cyanus (150 g a.i./ha, post-emergence)
62%: Herbicidal action 16 DAT [%] against Richardia scabra (720 g a.i./ha, post-emergence)
15%: Herbicidal action 45 DAT [%] against Amaranthus tuberculatus (720 g a.i./ha, post-emergence)
20%: Herbicidal action 21 DAT [%] against Kochia Scoparia (150 g a.i./ha, post-emergence (Z26))
80%: Herbicidal action 28 DAT [%] against Bromus sterilis (150 g a.i./ha, post-emergence)
10%: Herbicidal action 28 DAT [%] against Centaurea cyanus (50 g a.i./ha, post-emergence)
7%: Herbicidal action 45 DAT [%] against Lysimachia nummularia (720 g a.i./ha, post-emergence)
90%: Herbicidal action 28 DAT [%] against Bromus sterilis (450 g a.i./ha, post-emergence)

C=C[C@]1(C(=O)N[C@H]2C=C[C@@H](C(=O)OC)C2)CC(c2cc(F)cc(F)c2)=NO1 [Compound A1, methyl (1S,4R)-4-[[[(5S)-3-(3,5-difluorophenyl)-5-vinyl-4H-1,2-oxazol-5-yl]carbonyl]amino]cyclopent-2-ene-1-carboxylate]
75%: Herbicidal action 14 DAT [%] against Phalaris minor (4 g a.i./ha, post-emergence) | Herbicidal action 28 DAT [%] against Lolium rigidum (4 g a.i./ha, post-emergence) | Herbicidal action 14 DAT [%] against Phalaris minor [3] | Herbicidal action 28 DAT [%] against Lolium rigidum [3] | Herbicidal action 21 DAT [%] against Kochia Scoparia (5 g a.i./ha, post-emergence) | Herbicidal action 21 DAT [%] against Kochia Scoparia [4]
57%: Herbicidal action 45 DAT [%] against Amaranthus tuberculatus (100 g a.i./ha, post-emergence) | Herbicidal action 45 DAT [%] against Ipomoea ssp (100 g a.i./ha, post-emergence)
40%: Herbicidal action 28 DAT [%] against Veronica hederifolia (4 g a.i./ha, post-emergence) | Herbicidal action 28 DAT [%] against Lolium rigidum (resistant biotype) (4 g a.i./ha, post-emergence (Z25)) | Herbicidal action 28 DAT [%] against Lolium rigidum (resistant biotype) (4 g a.i./ha, post-emergence (Z26)) | Herbicidal action 21 DAT [%] against Amaranthus palmeri (15 g a.i./ha, post-emergence) | Herbicidal action 14 DAT [%] against Centaurea cyanus (16 g a.i./ha, post-emergence)
48%: Herbicidal action 16 DAT [%] against Richardia scabra (100 g a.i./ha, post-emergence)
70%: Herbicidal action 14 DAT [%] against Lolium rigidum (4 g a.i./ha, post-emergence) | Herbicidal action 14 DAT [%] against Matricaria inodora (4 g a.i./ha, post-emergence) | Herbicidal action 28 DAT [%] against Phalaris minor (4 g a.i./ha, post-emergence) | Herbicidal action 28 DAT [%] against Phalaris minor [3] | Herbicidal action 14 DAT [%] against Veronica hederifolia (16 g a.i./ha, post-emergence)
90%: Herbicidal action 21 DAT [%] against Setaria viridis (5 g a.i./ha, post-emergence)
85%: Herbicidal action 21 DAT [%] against Setaria viridis (1.7 g a.i./ha, post-emergence) | Herbicidal action 28 DAT [%] against Alopecurus myosuroides (4 g a.i./ha, post-emergence) | Herbicidal action 28 DAT [%] against Poa annua L. (4 g a.i./ha, post-emergence) | Herbicidal action 28 DAT [%] against Poa annua L. [3] | Herbicidal action 14 DAT [%] against Alopecurus myosuroides (16 g a.i./ha, post-emergence) | Herbicidal action 28 DAT [%] against Matricaria inodora (16 g a.i./ha, post-emergence) | Herbicidal action 28 DAT [%] against Phalaris minor (16 g a.i./ha, post-emergence) | Herbicidal action 28 DAT [%] against Matricaria inodora [5] | Herbicidal action 28 DAT [%] against Phalaris minor [5] | Herbicidal action 28 DAT [%] against Phalaris minor (16 g a.i./ha, post-emergence (Z26)) | Herbicidal action 21 DAT [%] against Kochia Scoparia (45 g a.i./ha, post-emergence)
30%: Herbicidal action 14 DAT [%] against Phalaris minor (1 g a.i./ha, post-emergence) | Herbicidal action 14 DAT [%] against Veronica hederifolia (1 g a.i./ha, post-emergence) | Herbicidal action 28 DAT [%] against Bromus sterilis (1 g a.i./ha, post-emergence) | Herbicidal action 28 DAT [%] against Poa annua L. (1 g a.i./ha, post-emergence) | Herbicidal action 14 DAT [%] against Phalaris minor (1 g a.i./ha, post-emergence (Table 3.2, Z25)) | Herbicidal action 28 DAT [%] against Lolium rigidum [1] | Herbicidal action 28 DAT [%] against Lolium rigidum [2] | Herbicidal action 28 DAT [%] against Poa annua L. [2] | Herbicidal action 14 DAT [%] against Centaurea cyanus (4 g a.i./ha, post-emergence) | Herbicidal action 28 DAT [%] against Centaurea cyanus (4 g a.i./ha, post-emergence) | Herbicidal action 21 DAT [%] against Amaranthus palmeri (5 g a.i./ha, post-emergence (Z25)) | Herbicidal action 21 DAT [%] against Amaranthus palmeri (5 g a.i./ha, post-emergence (Z26))
60%: Herbicidal action 21 DAT [%] against Abutilon theophrasti (5 g a.i./ha, post-emergence) | Herbicidal action 21 DAT [%] against Abutilon theophrasti [4]
0%: Herbicidal action 42 DAT [%] against Malva pusilla (100 g a.i./ha, post-emergence)
17%: Herbicidal action 42 DAT [%] against Geranium dissectum (100 g a.i./ha, post-emergence)
80%: Herbicidal action 14 DAT [%] against Alopecurus myosuroides (4 g a.i./ha, post-emergence) | Herbicidal action 14 DAT [%] against Poa annua L. (4 g a.i./ha, post-emergence) | Herbicidal action 21 DAT [%] against Ipomoea purpurea (5 g a.i./ha, post-emergence) | Herbicidal action 21 DAT [%] against Ipomoea purpurea (15 g a.i./ha, post-emergence) | Herbicidal action 21 DAT [%] against Kochia Scoparia (15 g a.i./ha, post-emergence) | Herbicidal action 21 DAT [%] against Kochia Scoparia (15 g a.i./ha, post-emergence (Table 3.2, Z25)) | Herbicidal action 21 DAT [%] against Kochia Scoparia (15 g a.i./ha, post-emergence (Z26)) | Herbicidal action 14 DAT [%] against Lolium rigidum (16 g a.i./ha, post-emergence) | Herbicidal action 14 DAT [%] against Poa annua L. (16 g a.i./ha, post-emergence)
10%: Herbicidal action 14 DAT [%] against Centaurea cyanus [1] | Herbicidal action 28 DAT [%] against Centaurea cyanus [1] | Herbicidal action 14 DAT [%] against Centaurea cyanus [2] | Herbicidal action 28 DAT [%] against Centaurea cyanus [2]
25%: Herbicidal action 45 DAT [%] against Lysimachia nummularia (100 g a.i./ha, post-emergence)
20%: Herbicidal action 14 DAT [%] against Lolium rigidum (resistant biotype) (1 g a.i./ha, post-emergence) | Herbicidal action 28 DAT [%] against Lolium rigidum (resistant biotype) (1 g a.i./ha, post-emergence)
50%: Herbicidal action 28 DAT [%] against Matricaria inodora [1] | Herbicidal action 28 DAT [%] against Matricaria inodora [2] | Herbicidal action 28 DAT [%] against Centaurea cyanus (16 g a.i./ha, post-emergence)
